Consider 15 compounds from patent US11155517B2, “4-substituted phenylamine derivatives and their use to protect crops by fighting undesired phytopathogenic micoorganisms” (PI INDUSTRIES LTD., priority 2016, dated 2021).

The subject of one assay is Botrytis cinerea. The assay can be described thus: Botrytis cinerea (gray mold) in vitro test, radial growth on Potato Dextrose Agar. Type of assay: cell-based. As to conditions: 168 h, 300 ppm, seven days, 22° C., read-out: % (control) compared to the untreated check (radial growth).
The test system of the next assay is Alternaria solani. The assay is described as follows: Alternaria solani (early blight of tomato/potato) in vitro test, radial growth on Potato Dextrose Agar. The following applies: 168 h, 300 ppm, seven days, 25° C., read-out: % control compared to the untreated check (radial growth). The format is cell-based.
For assay [1], the system named is Fusarium culmorum. The assay can be described thus: Greenhouse Fusarium culmorum test in wheat, preventive. The format is in vivo. As to conditions: 24 h, read-out: Efficacy (% control), disease severity vs untreated check. Here is the method: Compounds were dissolved in 2% DMSO/Acetone & then mixed with water to calibrated spray volume of 50 ml. This 50 ml spray solution was poured into the spray bottles for further applications.
To test the preventive activity of compounds, healthy young wheat plants raised in the greenhouse were sprayed with active compound preparation at the stated application rates inside the spray cabinets using hallowcone nozzles. One day after treatment, the plants were inoculated with spore suspension (2% Malt) containing 2×10^6 Fusarium culmorum inoculum. The inoculated plants were then kept in greenhouse chamber at 24° C. temperature and 80-90% relative humidity for disease expression.
A visual assessment of compound's performance was carried by rating the disease severity (0-100% scale) on treated plants on 3, 7, 10 and 15 days after application. Efficacy (% control) of the compounds was calculated by comparing the disease rating in the treatment with untreated control. The sprayed plants were also assessed for compound's phytotoxic effects by recording symptoms like necrosis, chlorosis and stunting.

For assay [2], the system named is Fusarium culmorum. The assay can be described thus: Fusarium culmorum (foot rot of cereals) in vitro test, radial growth on Potato Dextrose Agar. The format is cell-based. As to conditions: Fusarium culmorum, 168 h, read-out: % control compared to the untreated check (radial growth).
For the next assay, the system named is Rhizoctonia solani. The assay can be described thus: Rhizoctonia solani (rice sheath blight/potato black scurf) in vitro test, radial growth on Potato Dextrose Agar. The following applies: 168 h, 300 ppm, seven days, 25° C., read-out: % control compared to the untreated check (radial growth). Type of assay: cell-based.
In the next assay the test system is Colletotrichum capsici. The assay can be described thus: Colletotrichum capsici (anthracnose) in vitro test, radial growth on Potato Dextrose Agar. Type of assay: cell-based. As to conditions: Colletotrichum truncatum, 168 h; 300 ppm; seven days, 25° C.; read-out: % control compared to the untreated check (radial growth).
For the next assay, the system named is Pyricularia oryzae. The assay can be described thus: microbe, parasite or virus in culture. Type of assay: cell-based. The following applies: 168 h, read-out: % control compared to the untreated check (radial growth).
A further assay concerns Septoria lycopersici. The assay can be described thus: Septoria lycopersici (leaf spot of tomato) in vitro test, radial growth on Potato Dextrose Agar. The format is cell-based. As to conditions: 168 h, seven days, 25° C., read-out: % control compared to the untreated check (radial growth).
The next assay has as its system Botrytis cinera. The assay is described as follows: Greenhouse Botrytis cinera test in tomato, preventive. Type of assay: in vivo. The following applies: 24 h, plants sprayed one day before inoculation, read-out: Efficacy (% control), disease severity vs untreated check.

Each structure is given as a SMILES string. Some results are limits rather than exact numbers.

As to `CCN(C)C=Nc1cc(C)c(Cc2cccc(F)c2)cc1Cl` [Compound 30, N′-(2-chloro-4-(3-fluorobenzyl)-5-methylphenyl)-N-ethyl-N-methylformimidamide], the inhibition of growth at 300 ppm in the assay with Botrytis cinerea was above 80%; with Alternaria solani, above 75%; in the assay on Fusarium culmorum [2] it was 75%; in the assay on Rhizoctonia solani, above 80%; in the assay on Colletotrichum capsici it was above 80%; with Pyricularia oryzae, above 75%. For the same compound, the inhibition of growth at 300 ppm with Septoria lycopersici was above 70%. The pest or weed control at 500 ppm in the assay with Fusarium culmorum [1] was 70 to 100%.

For `CCN(C)C=Nc1cc(C)c(Cc2ccc(Cl)c(C(F)(F)F)c2)cc1Cl` [Compound 136, N′-(2-chloro-4-(4-chloro-3-(trifluoromethyl)benzyl)-5-methylphenyl)-N-ethyl-N-methylformimidamide], the inhibition of growth at 300 ppm in the assay on Botrytis cinerea is above 80%; in the assay with Alternaria solani, above 75%; in the assay with Fusarium culmorum [2], 75%; in the assay with Rhizoctonia solani, above 80%; with Colletotrichum capsici, above 80%; in the assay with Pyricularia oryzae, above 75%. Further, the pest or weed control at 500 ppm in the assay on Fusarium culmorum [1] is 70 to 100%.

On to `CCN(C)C=Nc1cc(C)c(Cc2ccc(SC(F)(F)F)cc2)cc1Cl` [Compound 77, N′-(2-chloro-5-methyl-4-(4-((trifluoromethyl)thio)benzyl)phenyl)-N-ethyl-N-methylformimidamide], for which the inhibition of growth at 300 ppm with Botrytis cinerea was above 80%; in the assay on Alternaria solani, above 75%; in the assay with Fusarium culmorum [2] it was 75%; in the assay with Rhizoctonia solani, above 80%; in the assay with Pyricularia oryzae, above 75%. Further, in the assay with Fusarium culmorum [1], the pest or weed control at 500 ppm fell in the range of 70 to 100%.

On to `CCN(C)C=Nc1cc(F)c(Cc2cccc(F)c2)cc1C` [Compound 172, N-ethyl-N′-(5-fluoro-4-(3-fluorobenzyl)-2-methylphenyl)-N-methylformimidamide], for which the inhibition of growth at 300 ppm in the assay with Botrytis cinerea is above 80%; in the assay with Alternaria solani it was above 75%; in the assay on Fusarium culmorum [2], 75%; in the assay on Rhizoctonia solani, above 80%; in the assay on Colletotrichum capsici, above 80%; with Pyricularia oryzae, above 75%. In the assay on Septoria lycopersici, the inhibition of growth at 300 ppm was above 70%. The pest or weed control at 500 ppm with Fusarium culmorum [1] lay in the range of 70 to 100%.

Consider `CCN(C)C=Nc1cc(C)c(Cc2ccc(F)cc2)cc1Cl` [Compound 76, N′-(2-chloro-4-(4-fluorobenzyl)-5-methylphenyl)-N-ethyl-N-methylformimidamide], for which the inhibition of growth at 300 ppm was above 80% in the assay with Botrytis cinerea; above 75% in the assay with Alternaria solani; 75% with Fusarium culmorum [2]; above 80% with Rhizoctonia solani; above 80% with Colletotrichum capsici; above 75% in the assay with Pyricularia oryzae. The pest or weed control at 500 ppm in the assay with Fusarium culmorum [1] was in the range of 70 to 100%.

For the compound `CCN(C)C=Nc1cc(C)c(Cc2cccc(C)c2)cc1Cl` [Compound 43, N′-(2-chloro-5-methyl-4-(3-methylbenzyl)phenyl)-N-ethyl-N-methylformimidamide], the inhibition of growth at 300 ppm was above 80% in the assay with Botrytis cinerea; above 75% in the assay on Alternaria solani; 75% with Fusarium culmorum [2]; above 80% with Rhizoctonia solani; above 80% in the assay on Colletotrichum capsici; above 75% in the assay on Pyricularia oryzae. In addition, in the assay with Septoria lycopersici, the inhibition of growth at 300 ppm is above 70%. Besides, the pest or weed control at 500 ppm in the assay with Botrytis cinera was in the range of 70 to 100%.

With `CCN(C)C=Nc1cc(C)c(Cc2cc(F)ccc2C)cc1C` [Compound 157, N-ethyl-N′-(4-(5-fluoro-2-methylbenzyl)-2,5-dimethylphenyl)-N-methylformimidamide], the inhibition of growth at 300 ppm in the assay on Botrytis cinerea was above 80%; in the assay on Alternaria solani it was above 75%; in the assay with Fusarium culmorum [2] it was 75%; in the assay on Rhizoctonia solani, above 80%; with Colletotrichum capsici, above 80%; in the assay on Pyricularia oryzae, above 75%. Further, the inhibition of growth at 300 ppm with Septoria lycopersici was above 70%. Further, the pest or weed control at 500 ppm with Fusarium culmorum [1] lay within 70 to 100%.

Turning to `CCN(C)C=Nc1cc(C)c(C2(c3ccccc3)SCCS2)cc1C` [Compound 33, N′-(2,5-dimethyl-4-(2-phenyl-1,3-dithiolan-2-yl)phenyl)-N-ethyl-N-methylformimidamide], the inhibition of growth at 300 ppm with Alternaria solani is above 75%; in the assay with Rhizoctonia solani, above 80%; in the assay with Pyricularia oryzae it was above 75%; in the assay on Septoria lycopersici, above 70%. Also, in the assay on Fusarium culmorum [1], the pest or weed control at 500 ppm was 70 to 100%.

As to `CCN(C)C=Nc1cc(C)c(Cc2ccc(F)cc2)cc1C` [Compound 57, N-ethyl-N′-(4-(4-fluorobenzyl)-2,5-dimethylphenyl)-N-methylformimidamide], the inhibition of growth at 300 ppm with Botrytis cinerea was above 80%; in the assay with Alternaria solani, above 75%; in the assay on Fusarium culmorum [2] it was 75%; in the assay on Rhizoctonia solani, above 80%; with Colletotrichum capsici, above 80%; in the assay on Pyricularia oryzae it was above 75%. For the same compound, the inhibition of growth at 300 ppm in the assay on Septoria lycopersici is above 70%. For the same compound, in the assay with Fusarium culmorum [1], the pest or weed control at 500 ppm was 70 to 100%.

In the case of `CCN(C)C=Nc1cc(C)c(Cc2cccc(Br)c2)cc1C` [Compound 14, N′-(4-(3-bromobenzyl)-2,5-dimethylphenyl)-N-ethyl-N-methylformimidamide], the inhibition of growth at 300 ppm is above 80% in the assay on Botrytis cinerea; above 75% in the assay on Alternaria solani; 75% in the assay with Fusarium culmorum [2]; above 80% with Rhizoctonia solani; above 80% in the assay with Colletotrichum capsici; above 75% with Pyricularia oryzae. Further, the inhibition of growth at 300 ppm with Septoria lycopersici is above 70%. The pest or weed control at 500 ppm with Botrytis cinera is 70 to 100%.

For `Cc1cc(N=CN(C)C(C)C)c(C)cc1Cc1ccccc1F` [Compound 81, N′-(4-(2-fluorobenzyl)-2,5-dimethylphenyl)-N-isopropyl-N-methylformimidamide], the inhibition of growth at 300 ppm in the assay on Botrytis cinerea is above 80%; in the assay with Alternaria solani, above 75%; in the assay on Fusarium culmorum [2], 75%; in the assay with Rhizoctonia solani, above 80%; in the assay with Colletotrichum capsici it was above 80%; in the assay with Pyricularia oryzae, above 75%. Also, the inhibition of growth at 300 ppm with Septoria lycopersici was above 70%. For the same compound, the pest or weed control at 500 ppm in the assay with Fusarium culmorum [1] lay within 70 to 100%.

`CCN(C)C=Nc1cc(C)c(Cc2ccc(Cl)c(Cl)c2)cc1C` [Compound 5, N′-(4-(3,4-dichlorobenzyl)-2,5-dimethylphenyl)-N-ethyl-N-methylformimidamide]: the inhibition of growth at 300 ppm in the assay with Botrytis cinerea is above 80%; with Alternaria solani it was above 75%; in the assay on Fusarium culmorum [2], 75%; in the assay with Rhizoctonia solani, above 80%; in the assay with Colletotrichum capsici, above 80%; in the assay with Pyricularia oryzae it was above 75%. Moreover, the inhibition of growth at 300 ppm in the assay with Septoria lycopersici was above 70%. The pest or weed control at 500 ppm in the assay on Botrytis cinera lay within 70 to 100%.

In the case of `Cc1cc(N=CN2CCCCC2)c(C)cc1Cc1ccccc1Cl` [Compound 59, N-(4-(2-chlorobenzyl)-2,5-dimethylphenyl)-1-(piperidin-1-yl)methanimine], the inhibition of growth at 300 ppm was above 80% in the assay on Botrytis cinerea; above 75% in the assay on Alternaria solani; 75% with Fusarium culmorum [2]; above 80% in the assay with Rhizoctonia solani; above 80% with Colletotrichum capsici; above 75% in the assay on Pyricularia oryzae. Also, the inhibition of growth at 300 ppm with Septoria lycopersici was above 70%. The pest or weed control at 500 ppm with Botrytis cinera fell in the range of 70 to 100%.

As to `CCN(C)C=Nc1cc(C)c(Cc2ccc(C)c(C(F)(F)F)c2)cc1C` [Compound 104, N′-(2,5-dimethyl-4-(4-methyl-3-(trifluoromethyl)benzyl)phenyl)-N-ethyl-N-methylformimidamide], the inhibition of growth at 300 ppm in the assay on Botrytis cinerea is above 80%; in the assay on Alternaria solani it was above 75%; in the assay with Fusarium culmorum [2], 75%; in the assay on Rhizoctonia solani, above 80%; with Colletotrichum capsici, above 80%; in the assay with Pyricularia oryzae, above 75%. Moreover, the inhibition of growth at 300 ppm in the assay with Septoria lycopersici is above 70%. For the same compound, in the assay with Botrytis cinera, the pest or weed control at 500 ppm lay in the range of 70 to 100%.

`CCN(C)C=Nc1cc(C)c(Cc2ccccc2[N+](=O)[O-])cc1Cl` [Compound 75, N′-(2-chloro-5-methyl-4-(2-nitrobenzyl)phenyl)-N-ethyl-N-methylformimidamide]: the inhibition of growth at 300 ppm with Botrytis cinerea is above 80%; in the assay with Alternaria solani, above 75%; in the assay with Fusarium culmorum [2], 75%; with Rhizoctonia solani, above 80%; in the assay on Colletotrichum capsici, above 80%; in the assay on Pyricularia oryzae, above 75%. Also, in the assay with Fusarium culmorum [1], the pest or weed control at 500 ppm fell in the range of 70 to 100%.
